# Test system: CVD (CHD or stroke)
# Test: CARE: SNP by pravastatin treatment interaction, logistic regression (synergy index), CVD endpoint
# Format: in vivo, human
# Details: for OR (SNP x pravastatin interaction) / OR (synergy index, SNP x pravastatin treatment interaction): CARE; for OR (synergy index), CARE, Prava vs Placebo: CVD endpoint
# Text: CARE was a secondary prevention trial and WOSCOPS was a primary prevention trial.
# The CHD endpoint was defined in the analyses herein of CARE as a composite endpoint of fatal CHD, definite non-fatal MI, or revascularization, and was defined in the analyses herein of WOSCOPS as a composite endpoint of death from CHD, nonfatal MI, or revascularization. In both the CARE and WOSCOPS analyses herein, the CVD endpoint was defined as a composite endpoint of CHD or stroke. […] Revascularization, which can include percutaneous transluminal coronary angioplasty (PTCA), stent placement, and coronary artery bypass graft (CABG), are medical interventions that indicate the presence of CHD.
# Cohort and case-only study designs were used to identify SNPs associated with response to statin treatment.
# For each SNP, a logistic regression model having treatment status as the dependent variable and SNP as the independent predictor variable was performed, with terms for age, sex and race included in the model as covariates. The anti-log of the regression coefficient corresponding to the SNP is an estimate of the synergy index (SI) (Davis et al., “Imputing gene-treatment interactions when the genotype distribution is unknown using case-only and putative placebo analyses-a new method for the Genetics of Hypertension Associated Treatment (GenHAT) study”, Statistics in Medicine 23: (2004), pages 2413-2427). The SI is a ratio of odds ratios: for example in the CARE and WOSCOPS studies, the SI represents the factor by which the odds-ratio of statin treatment, compared with placebo, among major homozygous individuals is multiplied by in order to obtain the odds-ratio of treatment vs. placebo among heterozygous individuals; and multiplied by a second time to obtain the odds-ratio of treatment vs. placebo in minor homozygous individuals. […] In a randomized clinical trial, genotype and treatment are independent by design.
smiles,measurement,setting,value
"CC[C@H](C)C(=O)O[C@H]1C[C@H](O)C=C2C=C[C@H](C)[C@H](CC[C@@H](O)C[C@@H](O)CC(=O)O)[C@H]21 [Pravastatin, pravastatin]",OR (SNP x pravastatin interaction),"rs2132242 allele A, ADD model, Imputed",0.7317
same,OR (SNP x pravastatin interaction),"rs2132242 allele A, DOM model, Imputed",0.6043
same,OR (SNP x pravastatin interaction),"rs2158958 allele A, DOM model, Imputed",0.6617
same,OR (SNP x pravastatin interaction),"rs2158961 allele G, DOM model, Imputed",0.6544
same,OR (SNP x pravastatin interaction),"rs2163046 allele A, DOM model, Imputed",1.474
same,OR (SNP x pravastatin interaction),"rs2180286 allele G, DOM model, Imputed",0.6211
same,OR (SNP x pravastatin interaction),"rs2180684 allele A, DOM model, Imputed",1.684
same,OR (SNP x pravastatin interaction),"rs2188079 allele C, ADD model, Imputed",1.333
same,OR (SNP x pravastatin interaction),"rs2190598 allele T, DOM model, Imputed",0.6617
same,OR (SNP x pravastatin interaction),"rs2190600 allele A, DOM model, Imputed",0.6716
same,OR (SNP x pravastatin interaction),"rs2224184 allele T, DOM model, Genotyped",0.6357
same,OR (SNP x pravastatin interaction),"rs2247066 allele A, DOM model, Imputed",0.6151
same,OR (SNP x pravastatin interaction),"rs2248236 allele C, ADD model, Imputed",0.6377
same,OR (SNP x pravastatin interaction),"rs2248236 allele C, DOM model, Imputed",0.6049
same,OR (SNP x pravastatin interaction),"rs2265733 allele C, ADD model, Imputed",0.6269
same,OR (SNP x pravastatin interaction),"rs2265733 allele C, DOM model, Imputed",0.5989
same,OR (SNP x pravastatin interaction),"rs2270584 allele A, ADD model, Imputed",0.7437
same,OR (SNP x pravastatin interaction),"rs2270584 allele A, DOM model, Imputed",0.5859
same,OR (SNP x pravastatin interaction),"rs2270586 allele A, ADD model, Imputed",0.7444
same,OR (SNP x pravastatin interaction),"rs2270586 allele A, DOM model, Imputed",0.5879
same,OR (SNP x pravastatin interaction),"rs2317057 allele T, ADD model, Imputed",0.7125
same,OR (SNP x pravastatin interaction),"rs2322100 allele T, REC model, Genotyped",1.768
same,OR (SNP x pravastatin interaction),"rs2322101 allele A, REC model, Imputed",1.764
same,OR (SNP x pravastatin interaction),"rs2327929 allele G, REC model, Imputed",1.996
same,OR (SNP x pravastatin interaction),"rs2332844 allele A, ADD model, Imputed",1.802
same,OR (SNP x pravastatin interaction),"rs2332844 allele A, REC model, Imputed",1.849
same,OR (SNP x pravastatin interaction),"rs2349170 allele G, DOM model, Imputed",1.638
same,OR (SNP x pravastatin interaction),"rs2356722 allele G, DOM model, Imputed",0.5863
same,OR (SNP x pravastatin interaction),"rs2364956 allele T, ADD model, Imputed",1.439
same,OR (SNP x pravastatin interaction),"rs2373793 allele G, ADD model, Imputed",1.379
same,OR (SNP x pravastatin interaction),"rs2373793 allele G, DOM model, Imputed",1.446
same,OR (SNP x pravastatin interaction),"rs2383903 allele G, DOM model, Imputed",0.6249
same,OR (SNP x pravastatin interaction),"rs2387945 allele G, DOM model, Imputed",1.587
same,OR (SNP x pravastatin interaction),"rs2389863 allele A, DOM model, Imputed",0.6722
same,OR (SNP x pravastatin interaction),"rs2389866 allele C, DOM model, Imputed",0.6634
same,OR (SNP x pravastatin interaction),"rs2389869 allele C, DOM model, Imputed",0.6634
same,OR (SNP x pravastatin interaction),"rs2389870 allele C, DOM model, Genotyped",0.6413
same,"OR (synergy index, SNP x pravastatin treatment interaction)","rs16938626 allele G, model DOM, Imputed",0.612
same,"OR (synergy index, SNP x pravastatin treatment interaction)","rs16964300 allele G, model ADD, Imputed",0.6771
same,"OR (synergy index, SNP x pravastatin treatment interaction)","rs16964300 allele G, model DOM, Imputed",0.7073
same,"OR (synergy index, SNP x pravastatin treatment interaction)","rs16986282 allele G, model DOM, Imputed",0.3124
same,"OR (synergy index, SNP x pravastatin treatment interaction)","rs17007620 allele G, model ADD, Imputed",1.421
same,"OR (synergy index, SNP x pravastatin treatment interaction)","rs17007620 allele G, model DOM, Imputed",1.572
same,"OR (synergy index, SNP x pravastatin treatment interaction)","rs17014326 allele G, model DOM, Imputed",0.5837
same,"OR (synergy index, SNP x pravastatin treatment interaction)","rs17047957 allele C, model DOM, Imputed",1.47
same,"OR (synergy index, SNP x pravastatin treatment interaction)","rs17073341 allele A, model ADD, Imputed",2.568
same,"OR (synergy index, SNP x pravastatin treatment interaction)","rs17073341 allele A, model DOM, Imputed",2.569
same,"OR (synergy index, SNP x pravastatin treatment interaction)","rs17138702 allele G, model ADD, Imputed",0.5527
same,"OR (synergy index, SNP x pravastatin treatment interaction)","rs17189710 allele T, model ADD, Imputed",1.359
same,"OR (synergy index, SNP x pravastatin treatment interaction)","rs17189710 allele T, model REC, Imputed",1.896
same,"OR (synergy index, SNP x pravastatin treatment interaction)","rs17310176 allele T, model ADD, Imputed",0.6381
same,"OR (synergy index, SNP x pravastatin treatment interaction)","rs17310176 allele T, model DOM, Imputed",0.5794
same,"OR (synergy index, SNP x pravastatin treatment interaction)","rs17358860 allele A, model DOM, Imputed",0.6291
same,"OR (synergy index, SNP x pravastatin treatment interaction)","rs17370541 allele T, model REC, Imputed",2.075
same,"OR (synergy index, SNP x pravastatin treatment interaction)","rs17530747 allele T, model DOM, Imputed",0.5794
same,"OR (synergy index, SNP x pravastatin treatment interaction)","rs17649114 allele C, model DOM, Imputed",1.543
same,"OR (synergy index, SNP x pravastatin treatment interaction)","rs17766172 allele A, model REC, Imputed",0.3869
same,"OR (synergy index), CARE, Prava vs Placebo","SNP rs304597 (A1 A, A2 G), rec model, cohort",1.95
same,"OR (synergy index), CARE, Prava vs Placebo","SNP rs304601 (A1 A, A2 G), rec model, Caseonly",2.28
same,"OR (synergy index), CARE, Prava vs Placebo","SNP rs988146 (A1 G, A2 A), add model, Caseonly",0.66
same,"OR (synergy index), CARE, Prava vs Placebo","SNP rs1336400 (A1 A, A2 G), dom model, cohort",1.68
same,"OR (synergy index), CARE, Prava vs Placebo","SNP rs1559557 (A1 G, A2 A), add model, Caseonly",1.34
same,"OR (synergy index), CARE, Prava vs Placebo","SNP rs1877527 (A1 G, A2 A), add model, Caseonly",0.75
same,"OR (synergy index), CARE, Prava vs Placebo","SNP rs2132241 (A1 A, A2 G), add model, Caseonly",0.74
same,"OR (synergy index), CARE, Prava vs Placebo","SNP rs2270588 (A1 G, A2 A), add model, Caseonly",0.72
same,"OR (synergy index), CARE, Prava vs Placebo","SNP rs3844207 (A1 G, A2 C), add model, cohort",0.73
same,"OR (synergy index), CARE, Prava vs Placebo","SNP rs7132840 (A1 T, A2 G), add model, cohort",0.75
same,"OR (synergy index), CARE, Prava vs Placebo","SNP rs9325191 (A1 A, A2 C), add model, Caseonly",0.74
same,"OR (synergy index), CARE, Prava vs Placebo","SNP rs9346951 (A1 A, A2 G), add model, Caseonly",1.56
same,"OR (synergy index), CARE, Prava vs Placebo","SNP rs10787944 (A1 G, A2 A), dom model, Caseonly",1.63
same,"OR (synergy index), CARE, Prava vs Placebo","SNP rs10945874 (A1 T, A2 C), add model, cohort",1.72
same,"OR (synergy index), CARE, Prava vs Placebo","SNP rs11178579 (A1 T, A2 G), add model, cohort",0.76
same,"OR (synergy index), CARE, Prava vs Placebo","SNP rs13103899 (A1 G, A2 A), dom model, cohort",0.70
same,"OR (synergy index), CARE, Prava vs Placebo","SNP rs13107334 (A1 G, A2 T), add model, cohort",0.69
same,"OR (synergy index), CARE, Prava vs Placebo","SNP rs13121569 (A1 G, A2 A), dom model, Caseonly",0.66
same,"OR (synergy index), CARE, Prava vs Placebo","SNP rs17048681 (A1 G, A2 T), add model, cohort",1.26
